Results on 12 molecules are retold here after patent US10195196B2, “1,4-disubstituted pyridazine analogs there of and methods for treating SMN-deficiency-related conditions” (NOVARTIS AG, priority 2012, dated 2019).

The assay relates to SMN protein. As to the kind of experiment: cellular SMN ELISA (SMN protein elevation). The format is cell-based. Conditions: myoblast cell line from SMNdelta7 mouse model, 24 hours treatment; for SMN activity Fold: fold activation over DMSO control. In short, it runs like this:
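SMNdelta7 mouse-derived myoblasts were treated with compound for 24 h, then lysed. SMN protein was quantified by sandwich ELISA (HRP/TMB, 450 nm) and reported as fold over DMSO and EC50, over 20 nM–10 μM or 100 pM–10 μM depending on condition.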
A general note: In an ELISA, binding on a coated surface is turned into a signal by an enzyme label.

Setting [1] is: ELISA condition 2: compound concentration 100 pM-10 uM.
The mark [2] stands for this setting: ELISA condition 1: compound concentration range 20 nM-10 uM.

`CN(c1ccc(-c2cc3ccc(C4CCOCC4)cc3cc2O)nn1)C1CC(C)(C)NC(C)(C)C1` [Example 24-9, 3-(6-(methyl(2,2,6,6-tetramethylpiperidin-4-yl)amino)pyridazin-3-yl)-7-(tetrahydro-2H-pyran-4-yl)naphthalen-2-ol]: under setting [1], the EC50 was 338 nM and the “SMN activity Fold” value worked out at 2.65 Fold.

For `CC1CC(Oc2ccc(-c3ccc(-n4cccn4)cc3O)nn2)CCN1` (single isomer, unassigned) [Example 17-7], under setting [1], the EC50 was found to be 617 nM and the “SMN activity Fold” value is on record as 2.50 Fold.

As for `CN(c1ccc(-c2ccc(-c3ncc[nH]3)cc2O)nn1)C1CC(C)(C)NC(C)(C)C1` [Example 42-1, 5-(1H-imidazol-2-yl)-2-(6-(methyl(2,2,6,6-tetramethylpiperidin-4-yl)amino)pyridazin-3-yl)phenol], under setting [1], it took 117 nM to reach a half-maximal effect (EC50) and the “SMN activity Fold” value is on record as 2.28 Fold.

In the case of `CN1C(C)(C)CC(Oc2ccc(-c3ccc(-n4cccn4)cc3O)nn2)CC1(C)C` [Example 17-11, 2-[6-(1,2,2,6,6-pentamethyl-piperidin-4-yloxy)-pyridazin-3-yl]-5-pyrazol-1-yl-phenol], under setting [1], a half-maximal effect (EC50) was put at 665 nM and the “SMN activity Fold” value stood at 3.01 Fold.

Take `CN(c1ccc(-c2cc3c(cc2O)-c2nc(N)sc2C3)nn1)C1CC(C)(C)NC(C)(C)C1` [Example 35-5, 2-amino-6-(6-(methyl(2,2,6,6-tetramethylpiperidin-4-yl)amino)pyridazin-3-yl)-8H-indeno[1,2-d]thiazol-5-ol]: under setting [1], the EC50 was determined as 6 nM and the “SMN activity Fold” value turned out to be 2.44 Fold.

Consider `CN(c1ccc(-c2cc3ccc(CN4CCCC4)cc3cc2O)nn1)C1CC(C)(C)NC(C)(C)C1` [Example 24-3, 3-(6-(methyl(2,2,6,6-tetramethylpiperidin-4-yl)amino)pyridazin-3-yl)-7-(pyrrolidin-1-ylmethyl)naphthalen-2-ol], for which, under setting [1], it took 120 nM to reach a half-maximal effect (EC50) and the “SMN activity Fold” value was 2.75 Fold.

With `COc1cc(-c2cnn(C)c2)cc(O)c1-c1ccc(N(C)C2CC(C)(C)NC(C)(C)C2)nn1` [Example 26-1, 3-methoxy-2-(6-(methyl(2,2,6,6-tetramethylpiperidin-4-yl)amino)pyridazin-3-yl)-5-(1-methyl-1H-pyrazol-4-yl)phenol], under setting [1], a half-maximal response (EC50) required 14 nM and the “SMN activity Fold” value is on record as 3.18 Fold.

As for `CN(c1ccc(-c2ccc3ccncc3c2)nn1)C1CC(C)(C)NC(C)(C)C1` [Example 1-14, 6-(isoquinolin-7-yl)-N-methyl-N-(2,2,6,6-tetramethylpiperidin-4-yl)pyridazin-3-amine], under setting [1], the EC50 turned out to be 252 nM and the “SMN activity Fold” value was 3.13 Fold.

Take `Cc1cnc(-c2cc(O)c(-c3ccc(N(C)C4CC(C)(C)NC(C)(C)C4)nn3)c(OCC3CC3)c2)o1` [Example 27-3, 3-(cyclopropylmethoxy)-2-(6-(methyl(2,2,6,6-tetramethylpiperidin-4-yl)amino)-pyridazin-3-yl)-5-(5-methyloxazol-2-yl)phenol]: under setting [1], the EC50 was 619 nM and the “SMN activity Fold” value came out at 2.75 Fold.

Regarding `CN(c1ccc(-c2ccc(C3=CCOCC3)cc2O)nn1)C1CC(C)(C)NC(C)(C)C1` [Example 41-17, 5-(3,6-dihydro-2H-pyran-4-yl)-2-(6-(methyl(2,2,6,6-tetramethylpiperidin-4-yl)amino)pyridazin-3-yl)phenol], under setting [1], the midpoint of the response, the EC50, lay at 170 nM and the “SMN activity Fold” value came to 2.88 Fold.

Regarding `CN(c1ccc(-c2ccc3cc(O)ccc3c2)nn1)C1CC(C)(C)NC(C)(C)C1` [Example 1-8, 6-(6-(methyl-(2,2,6,6-tetra-methylpiperidin-4-yl)amino)-pyridazin-3-yl)naphthalen-2-ol], under setting [2], the EC50 came out at 320 nM and the “SMN activity Fold” value was determined as 2.18 Fold.

With `CC1(C)CC(Oc2ccc(-c3ccc4ccncc4c3)nn2)CC(C)(C)N1` [Example 1-10, 7-(6-((2,2,6,6-tetramethylpiperidin-4-yl)oxy)pyridazin-3-yl)isoquinoline], under setting [1], a half-maximal response (EC50) required 1100 nM and the “SMN activity Fold” value worked out at 2.75 Fold.

For orientation: EC50 means the concentration at which the effect is half-maximal. The low end stands for higher potency in that assay, the high end for lower potency in that assay.
